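Cells were grown in 96-well plates and exposed to each compound for 48 hours at five concentrations; endpoints were interpolated linearly between bracketing concentrations, or set to the highest concentration if not reached. Abbreviation: GI50, concentration required for 50% inhibition of growth.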 The source made the active and inactive calls. No stated cut-off is given here; in the data, active = GI50 up to about 1.1 µM and inactive = higher.
Legend:
Assay in all cases: inhibition of tumour cell growth, NCI panel, 48 h
[1] = system: 786-0
[2] = system: A549
[3] = system: ACHN
[4] = system: BT-549
[5] = system: COLO 205
[6] = system: DU-145
[7] = system: EKVX
[8] = system: HCT-116
[9] = system: HCT-15
[10] = system: HOP-62
[11] = system: HOP-92
[12] = system: HT-29
[13] = system: Hs-578T
[14] = system: IGROV-1
[15] = system: LOX IMVI
[16] = system: M14
[17] = system: MCF7
[18] = system: MDA-MB-231
[19] = system: MDA-N
[20] = system: MOLT-4
[21] = system: Malme-3M
[22] = system: NCI-H226
[23] = system: NCI-H460
[24] = system: NCI-H522
[25] = system: NCI/ADR-RES
[26] = system: OVCAR-3
[27] = system: OVCAR-4
[28] = system: OVCAR-5
[29] = system: OVCAR-8
[30] = system: PC-3
[31] = system: SF-268
[32] = system: SF-295
[33] = system: SK-MEL-2
[34] = system: SK-MEL-5
[35] = system: SK-OV-3
[36] = system: SN12C
[37] = system: SNB-19
[38] = system: SNB-75
[39] = system: SR
[40] = system: SW-620
[41] = system: T47D
[42] = system: UACC-257
[43] = system: UACC-62
[44] = system: UO-31
[45] = system: CCRF-CEM
[46] = system: HCC 2998
[47] = system: HL-60
[48] = system: K562
[49] = system: KM12
[50] = system: MDA-MB-435
[51] = system: NCI-H23
[52] = system: RPMI-8226
[53] = system: RXF 393
[54] = system: SF-539
[55] = system: SK-MEL-28
[56] = system: TK-10
[57] = system: U-251

Measured: GI50

O=C(Cn1c(-c2ccccc2)cc2ccccc21)N1CCCC1
inactive: [1] > 100 µM | [2] > 100 µM | [3] > 100 µM | [4] > 100 µM | [5] > 100 µM | [6] > 100 µM | [7] > 100 µM | [8] > 100 µM | [10] > 100 µM | [11] > 100 µM | [12] > 100 µM | [13] > 100 µM | [14] > 100 µM | [15] > 100 µM | [16] > 100 µM | [17] > 100 µM | [18] > 100 µM | [19] > 100 µM | [20] > 100 µM | [21] > 100 µM | [22] > 100 µM | [23] > 100 µM | [24] > 100 µM | [25] > 100 µM | [26] > 100 µM | [27] > 100 µM | [28] > 100 µM | [29] > 100 µM | [30] > 100 µM | [31] > 100 µM | [32] > 100 µM | [33] > 100 µM | [34] 63.2 µM | [35] > 100 µM | [36] > 100 µM | [37] > 100 µM | [38] > 100 µM | [39] > 100 µM | [40] > 100 µM | [41] > 100 µM | [42] > 100 µM | [43] > 100 µM | [44] > 100 µM
> 100 µM: [9]

C(=N\OCCc1ccccc1)/c1cccnc1
inactive: [1] > 100 µM | [2] > 100 µM | [3] > 100 µM | [4] > 100 µM | [45] > 100 µM | [5] > 100 µM | [6] > 100 µM | [7] > 100 µM | [46] > 100 µM | [8] > 100 µM | [47] 5.02 µM | [10] > 100 µM | [11] > 100 µM | [12] > 100 µM | [13] > 100 µM | [14] > 100 µM | [48] > 100 µM | [49] > 100 µM | [16] > 100 µM | [17] > 100 µM | [18] > 100 µM | [50] > 100 µM | [19] > 100 µM | [20] 76.7 µM | [21] > 100 µM | [22] > 100 µM | [51] > 100 µM | [23] > 100 µM | [24] > 100 µM | [25] > 100 µM | [26] > 100 µM | [27] > 100 µM | [28] > 100 µM | [29] > 100 µM | [30] > 100 µM | [52] > 100 µM | [53] > 100 µM | [31] > 100 µM | [32] > 100 µM | [54] > 100 µM | [55] > 100 µM | [33] > 100 µM | [34] > 100 µM | [35] > 100 µM | [36] > 100 µM | [37] > 100 µM | [38] 71.6 µM | [40] > 100 µM | [41] > 100 µM | [56] > 100 µM | [57] > 100 µM | [42] > 100 µM | [43] > 100 µM | [44] > 100 µM
> 100 µM: [9]

CCCCCCCN1C(=O)C(O)(c2ccc(C3(O)C(=O)N(CCCCCCC)c4ccccc43)s2)c2ccccc21 (configuration not stated)
inactive: [1] 1.91 µM | [3] 2.26 µM | [4] 2.33 µM | [45] 3.87 µM | [5] 1.63 µM | [6] 1.65 µM | [46] 1.87 µM | [8] 1.73 µM | [47] 1.56 µM | [10] 1.77 µM | [11] 1.84 µM | [12] 1.78 µM | [13] 2.79 µM | [14] 2.35 µM | [48] 2.99 µM | [49] 1.8 µM | [15] 1.96 µM | [16] 1.79 µM | [17] 2.21 µM | [18] 2.19 µM | [50] 2.05 µM | [19] 1.99 µM | [20] 2.03 µM | [23] 1.79 µM | [27] 2.01 µM | [28] 1.68 µM | [29] 2.04 µM | [30] 1.97 µM | [52] 2.04 µM | [31] 2.11 µM | [32] 1.85 µM | [54] 1.79 µM | [55] 2.07 µM | [33] 1.47 µM | [34] 1.79 µM | [36] 1.9 µM | [37] 2.81 µM | [38] 5.4 µM | [39] 4.83 µM | [40] 2.18 µM | [41] 4.39 µM | [56] 2.25 µM | [57] 1.74 µM | [42] 2.07 µM | [43] 2.12 µM | [44] 1.57 µM
active: [35] 0.753 µM
2.12 µM: [9]

— ChEMBL document CHEMBL1201862, “PubChem BioAssay data set” (2004)
